Like-named read-outs stand apart in the source and are kept apart here. One block for each compound: values may come before it.
Legend:
SW1573 [1] = assay: 2D combinational test (SRB growth inhibition, six days); settings: Homo sapiens
MIAPACA2 = assay: as above; settings: Homo sapiens, MIA PaCa-2, 144 h
PF97 = assay: as above; settings: Homo sapiens, 144 h
cancer patients = settings: patients, cited from earlier work
SW480 = assay: 2D combinational test (SRB growth inhibition, six days); assay type: cell-based, human; settings: Homo sapiens
Description: (§1) OD values were normalized to control. […] Data shown are results of three independent experiments.

SW1990 = assay: as above; assay type: cell-based, human; settings: Homo sapiens, SW1990, SW1990, read-out: Relative cell viability (MEAN)
Description: as §1

SW1573 [2] = assay: siRNA knockdown experiment (SRB, IC50); assay type: cell-based, human; settings: Homo sapiens, SW1573, 144 h, 6-day-long treatment
Procedure: Cells were plated in 2500 and 7500 cells/well density (for non-targeting siRNA and HRAS siRNA treatment, respectively) on a 48we11 plate supplemented with pre-mixed Lipofectamine RNAIMAX Reagent (Thermo Fisher) and OptiMEM (Thermo Fisher) containing 2.5 pmol/well non-targeting or HRAS siRNA according to the manufacturer's instruction (reverse transfection protocol). […] On the 3rd day of the treatment, cells were supplemented with fresh pre-mixed 2.5 pmol/well siRNA diluted in Lipofectamine RNAiMAX Reagent and Optimem according to the manufacturer's instruction. […] OD values were normalized to control, and IC50 values were calculated from transformed data using GraphPad PRISM 5 software.

H358 xenografts = assay: In vivo tumor growth of subcutaneous xenografts; parameters: species or system female SCID mice; settings: AMG510 5 mg/kg i.p. and/or tipifarnib 40 mg/kg i.p., (day 1 = 1)
Procedure: (§2) H358 and SW1573 human lung adenocarcinoma cells (5×10^6 and 1×10^6, respectively) were subcutaneously injected in female SCID mice. Cells were injected in 200 μl DMEM:Matrigel mixture (ratio 1:1) based on preliminary experiments. When tumor reached approximately 100 mm^3 (H358 7 days, SW1573 26 days after injection), animals were randomized and treated intraperitoneally daily except for weekends. Drugs were dissolved in 60% DPBS, 34% PEG300, 5% DMSO and 1% Tween80. […] Controls received vehicle. Doses were determined based on previous literature, roughly using half of the used per os doses. The subcutaneous tumors were measured with a caliper and tumor volumes were calculated with the formula […] and expressed in mm^3. H358 experiment was terminated after 18 days and SW1573 after 25 days treatment. Tumors were measured upon harvest, then fixed with 4% PFA for histological analyses.
(§3) Animals were the properties of the Department of Experimental Pharmacology, National Institute of Oncology, H-1122, Budapest, Hungary. All experiments were carried out in accordance with the Guidelines for Animal Experiments and were approved for the Department of Experimental Pharmacology in the National Institute of Oncology, Budapest, Hungary.

SW1573 xenografts = assay: In vivo tumor growth of subcutaneous xenografts; parameters: species or system female SCID mice; settings: AMG510 25 mg/kg i.p. and/or tipifarnib 40 mg/kg i.p., (day 1 = 1)
Procedure: as §2, §3

[3] = group mean, in g (unit assumed)

Structure (SMILES): C=CC(=O)N1CCN(c2nc(=O)n(-c3c(C)ccnc3C(C)C)c3nc(-c4c(O)cccc4F)c(F)cc23)[C@@H](C)C1 [AMG-510]
viability at 0.01 µM (SW1573 [1]; SW1573, read-out: Viability data (MEAN), SW1573, BPH1222 0 μM + AMG-510 10 nM): 99.5%
viability at 0.025 µM (SW1573 [1]; SW1573, read-out: Viability data (MEAN), SW1573, BPH1222 0 μM + AMG-510 25 nM): 99.8%
viability at 0.05 µM (SW1573 [1]; SW1573, read-out: Viability data (MEAN), SW1573, BPH1222 0 μM + AMG-510 50 nM): 97.7%
viability at 0.01 µM (SW1573 [1]; SW1573, read-out: Viability data (MEAN), SW1573, SIMVASTATIN 0 μM + AMG-510 10 nM): 96.6%
viability at 0.025 µM (SW1573 [1]; SW1573, read-out: Viability data (MEAN), SW1573, SIMVASTATIN 0 μM + AMG-510 25 nM): 92.5%
viability at 0.05 µM (SW1573 [1]; SW1573, read-out: Viability data (MEAN), SW1573, SIMVASTATIN 0 μM + AMG-510 50 nM): 89.9%

Structure (SMILES): C=C(F)C(=O)N1CCN(c2nc(OC[C@@H]3CCCN3C)nc3c2CCN(c2cccc4cccc(Cl)c24)C3)C[C@@H]1CC#N [adagrasib]
viability at 0.01 µM (SW1573 [1]; SW1573, 144 h, read-out: Relative cell viability, 6/A3, SW1573, 10 nM adagrasib + 0 nM tipifarnib, six days): 85.3%
viability at 0.025 µM (SW1573 [1]; SW1573, 144 h, read-out: Relative cell viability, 6/A3, SW1573, 25 nM adagrasib + 0 nM tipifarnib, six days): 77.3%
viability at 0.1 µM (SW1573 [1]; SW1573, 144 h, read-out: Relative cell viability, 6/A3, SW1573, 100 nM adagrasib + 0 nM tipifarnib, six days): 67.2%
viability at 0.01 µM (SW1573 [1]; SW1573, 144 h, read-out: Relative cell viability, 7/A3, SW1573, 10 nM adagrasib + 0 nM lonafarnib, six days): 86.6%
viability at 0.025 µM (SW1573 [1]; SW1573, 144 h, read-out: Relative cell viability, 7/A3, SW1573, 25 nM adagrasib + 0 nM lonafarnib, six days): 79.4%
viability at 0.1 µM (SW1573 [1]; SW1573, 144 h, read-out: Relative cell viability, 7/A3, SW1573, 100 nM adagrasib + 0 nM lonafarnib, six days): 72.5%
viability at 0.025 µM (MIAPACA2; read-out: Relative cell viability, 6/A2, 25 nM adagrasib + 0 nM tipifarnib): 50.4%
viability at 0.05 µM (MIAPACA2; read-out: Relative cell viability, 6/A2, 50 nM adagrasib + 0 nM tipifarnib): 38.3%
viability at 0.1 µM (MIAPACA2; read-out: Relative cell viability, 6/A2, 100 nM adagrasib + 0 nM tipifarnib): 28.9%
viability at 0.025 µM (MIAPACA2; read-out: Relative cell viability, 7/A2, 25 nM adagrasib + 0 nM lonafarnib): 50.8%
viability at 0.05 µM (MIAPACA2; read-out: Relative cell viability, 7/A2, 50 nM adagrasib + 0 nM lonafarnib): 37.5%
viability at 0.1 µM (MIAPACA2; read-out: Relative cell viability, 7/A2, 100 nM adagrasib + 0 nM lonafarnib): 27.3%
viability at 0.025 µM (PF97; read-out: Relative cell viability, 6/A1, 25 nM adagrasib + 0 nM tipifarnib): 58.2%
viability at 0.1 µM (PF97; read-out: Relative cell viability, 6/A1, 100 nM adagrasib + 0 nM tipifarnib): 46.7%
viability at 0.5 µM (PF97; read-out: Relative cell viability, 6/A1, 500 nM adagrasib + 0 nM tipifarnib): 45.9%
viability at 0.01 µM (PF97; read-out: Relative cell viability, 7/A1, 10 nM adagrasib + 0 nM lonafarnib): 52.5%
viability at 0.1 µM (PF97; read-out: Relative cell viability, 7/A1, 100 nM adagrasib + 0 nM lonafarnib): 29.2%
viability at 0.5 µM (PF97; read-out: Relative cell viability, 7/A1, 500 nM adagrasib + 0 nM lonafarnib): 19.4%

Structure (SMILES): NC(=O)N1CCC(CC(=O)N2CCC([C@H]3c4ncc(Br)cc4CCc4cc(Cl)cc(Br)c43)CC2)CC1 [lonafarnib]
Objective responses (cancer patients; colorectal cancer): no objective responses
Progression-free or overall survival (cancer patients; ovarian cancer, in combination with chemotherapy): does not improve
viability at 0.5 µM (SW480; 500 nM lonafarnib + 0 μM BI2852, read-out: Relative cell viability (MEAN)): 72%
viability at 1 µM (SW480; 1000 nM lonafarnib + 0 μM BI2852, read-out: Relative cell viability (MEAN)): 63.9%
viability at 2 µM (SW480; 2000 nM lonafarnib + 0 μM BI2852, read-out: Relative cell viability (MEAN)): 55.7%
viability at 0.2 µM (SW1990; 200 nM lonafarnib + 0 nM MRTX1133): 83.1%
viability at 1 µM (SW1990; 1000 nM lonafarnib + 0 nM MRTX1133): 64.8%
viability at 2 µM (SW1990; 2000 nM lonafarnib + 0 nM MRTX1133): 57.6%

IC50 (SW1573 [2]; Cont (non-targeting) siRNA): 4.56 nM
IC50 (SW1573 [2]; HRAS siRNA): 10.5 nM
Structure (SMILES): Cn1cncc1[C@@](N)(c1ccc(Cl)cc1)c1ccc2c(c1)c(-c1cccc(Cl)c1)cc(=O)n2C [tipifarnib]
viability at 0.025 µM (SW1573 [1]; SW1573, read-out: Relative cell viability (MEAN), SW1573, 25 nM tipifarnib + 0 μM BI2852): 41.4%
viability at 0.05 µM (SW1573 [1]; SW1573, read-out: Relative cell viability (MEAN), SW1573, 50 nM tipifarnib + 0 μM BI2852): 35.4%
viability at 0.1 µM (SW1573 [1]; SW1573, read-out: Relative cell viability (MEAN), SW1573, 100 nM tipifarnib + 0 μM BI2852): 29.2%
Weights of the tumors at the end of the experiment (H358 xenografts; animal 1, in g (unit assumed)): 0.182
Weights of the tumors at the end of the experiment (H358 xenografts; animal 2, in g (unit assumed)): 1.599
Weights of the tumors at the end of the experiment (H358 xenografts; animal 3, in g (unit assumed)): 1.023
Weights of the tumors at the end of the experiment (H358 xenografts; animal 4, in g (unit assumed)): 0.223
Weights of the tumors at the end of the experiment (H358 xenografts; animal 5, in g (unit assumed)): 0.225
Weights of the tumors at the end of the experiment (H358 xenografts; animal 6, in g (unit assumed)): 0.205
Weights of the tumors at the end of the experiment (H358 xenografts; animal 7, in g (unit assumed)): 0.239
Weights of the tumors at the end of the experiment, MEAN (H358 xenografts; [3]): 0.528
Weights of the tumors at the end of the experiment (SW1573 xenografts; animal 1, in g (unit assumed)): 0.5323
Weights of the tumors at the end of the experiment (SW1573 xenografts; animal 2, in g (unit assumed)): 0.2277
Weights of the tumors at the end of the experiment (SW1573 xenografts; animal 3, in g (unit assumed)): 0.3143
Weights of the tumors at the end of the experiment (SW1573 xenografts; animal 5, in g (unit assumed)): 0.2239
Weights of the tumors at the end of the experiment (SW1573 xenografts; animal 6, in g (unit assumed)): 0.2604
Weights of the tumors at the end of the experiment (SW1573 xenografts; animal 7, in g (unit assumed)): 1.2243
Weights of the tumors at the end of the experiment, MEAN (SW1573 xenografts; [3]): 0.4638
viability at 0.1 µM (SW1990; 100 nM tipifarnib + 0 μM BI2852): 75.6%
viability at 0.1 µM (SW1990; 100 nM tipifarnib + 0 nM MRTX1133): 80.2%
viability at 0.5 µM (SW1990; 500 nM tipifarnib + 0 μM BI2852): 67%
viability at 0.5 µM (SW1990; 500 nM tipifarnib + 0 nM MRTX1133): 70.3%
viability at 1 µM (SW1990; 1000 nM tipifarnib + 0 μM BI2852): 55%
viability at 1 µM (SW1990; 1000 nM tipifarnib + 0 nM MRTX1133): 63.4%

— patent US20240058321A1, “FARNESYL-TRANSFERASE INHIBITORS AND KRAS INHIBITORS FOR TREATING KRAS MUTANT CANCERS” (SEMMELWEIS EGYETEM, priority 2021, published 2024)
